Target: T1, Relaxin-3 receptor 1 (Homo sapiens, UniProt Q9NSD7)
T1 sequence (Q9NSD7 whole entry): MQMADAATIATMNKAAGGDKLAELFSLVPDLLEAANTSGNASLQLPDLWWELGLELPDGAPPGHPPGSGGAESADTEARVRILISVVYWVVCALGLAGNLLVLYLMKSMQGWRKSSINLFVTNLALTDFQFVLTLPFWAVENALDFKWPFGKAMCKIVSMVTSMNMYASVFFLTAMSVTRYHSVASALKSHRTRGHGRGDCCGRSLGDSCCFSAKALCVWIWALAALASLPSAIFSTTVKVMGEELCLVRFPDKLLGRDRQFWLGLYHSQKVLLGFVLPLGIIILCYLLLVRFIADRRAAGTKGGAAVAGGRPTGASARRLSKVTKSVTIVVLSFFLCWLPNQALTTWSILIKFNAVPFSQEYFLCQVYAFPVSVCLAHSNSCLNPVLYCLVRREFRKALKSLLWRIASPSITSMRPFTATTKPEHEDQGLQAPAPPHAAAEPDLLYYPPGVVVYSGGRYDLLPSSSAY
Test: Antagonist activity at human RXFP3 expressed in CHO-K1 cells assessed as forskolin-induced cAMP accumulation measured after 30 mins in presence of relaxin-3 by TR-FRET assay
Assay type: functional, cell-based

IC50 [µM]	SMILES
> 10	Cc1ccc(-c2noc(-c3ccc(NC(=O)C4CC(=O)N(CCc5ccccc5)C4)cc3)n2)cc1 (centres undefined)
> 10	Cc1ccc(-c2noc(-c3ccc(NC(=O)C4CC(=O)N(Cc5ccccc5F)C4)cc3)n2)cc1 (centres undefined)
2.12	Cc1ccc(-c2noc(-c3ccc(NC(=O)C4CC(=O)N(Cc5cccnc5)C4)cc3)n2)cc1 (centres undefined)
> 10	Cc1ccc(-c2noc(-c3ccc(NC(=O)C4CC(=O)N(Cc5cccc(F)c5)C4)cc3)n2)cc1 (centres undefined)
